Test results published in US9095613B2, “Photosensitizer-metal nanoparticle charge complex and composition containing the complex for photodynamic therapy or diagnosis” (NATIONAL CANCER CENTER, priority 2009, dated 2015).
Where two headings read alike, the source gives them in different places.

Tests used:
skin photosensitivity = conditions: patient after administration; cited from earlier work
[1] = at 675 nm, known value; cited from earlier work
SCC7 xenograft tumor [2] = experiment: Inhibition of tumor growth by photodynamic therapy in xenograft model; assay type: in vivo, Balb/c-nu mice; conditions: 1 mg AlPcS4 equivalent/kg i.v., 670 nm 60 J/cm^2
Procedure: (§1) 2×10^6 cells per 100 μl of the SCC7 cell line were injected subcutaneously to hind legs of Balb/c-nu mice of 19 to 22 g to create xenograft tumor models. When a tumor was grown to a size of about […], 29 experimental animals were divided into three groups (Day 0) based on the tumor size. Among them, 6 mice were used for near-infrared fluorescence imaging using the photosensitizer, and the other 23 mice were used to observe an inhibitory effect on tumor growth through the photodynamic therapy. A volume of the tumor was calculated with an equation of height×length×width×0.5.
For each of the AlPcS4-treated group and the GNR/AlPcS4 complex-treated group, the drug (each of AlPcS4 and GNR/AlPcS4 complex prepared in Preparation Example 2-4) dissolved in PBS (6.7 mM, pH 7.4, NaCl 154 mM) was injected into a tail vein of a mouse at the dose of 1 mg AlPcS4 equivalent/kilogram body weight. […] To compare the near-infrared fluorescence image and the accumulated amount in the tumor of the injected photosensitizer, two mice were taken from each group after 24 hours from the treatment of the drug (Day 2), and therefrom fluorescence images of AlPcS4 were obtained using a near-infrared fluorescence image device (IVIS Lumina) (Cy5.5 channel; Ex. filter 615-665 nm, Em. Filter 695-770 nm). […]

SCC7 xenograft tumor [3] = experiment: Near-infrared fluorescence imaging of tumor in xenograft model; assay type: in vivo, Balb/c-nu mice; conditions: 1 mg AlPcS4 equivalent/kg, tail vein, 24 hours after injection
Procedure: as §1
For each of the AlPcS4-treated group and the GNR/AlPcS4 complex-treated group, the drug (each of AlPcS4 and GNR/AlPcS4 complex prepared in Preparation Example 2-4) dissolved in PBS (6.7 mM, pH 7.4, NaCl 154 mM) was injected into a tail vein of a mouse at the dose of 1 mg AlPcS4 equivalent/kilogram body weight. […] To compare the near-infrared fluorescence image and the accumulated amount in the tumor of the injected photosensitizer, two mice were taken from each group after 24 hours from the treatment of the drug (Day 2), and therefrom fluorescence images of AlPcS4 were obtained using a near-infrared fluorescence image device (IVIS Lumina) (Cy5.5 channel; Ex. filter 615-665 nm, Em. Filter 695-770 nm).

[4] = system: SCC7 (Squamous cell Carcinoma) cell line; experiment: Quantitative analysis of uptake into cells (fluorescence of cell lysis solution); assay type: cell-based; conditions: 5 μM AlPcS4 equivalent, 4 hours
Procedure: 90000 cells of a SCC7 (Squamous cell Carcinoma) cell line per well were seeded in a 96 well plate and cultured for 24 hours. Afterwards, the AlPcS4 and the GNR/AlPcS4 complex prepared in Preparation Example 2-4 were diluted with a cell culture medium containing serum to have an equivalent concentration of 5 μM AlPcS4. […] of the diluted solution per well was added, and maintained at 37° C. for 4 hours. Subsequently, after the cell culture medium containing the photosensitizer was removed, the cells were washed three times, and then treated with 200 μl of 0.1% SDS/0.1M NaOH solution for 2 hours for cell lysis. Then, a fluorescence signal of the AlPcS4 generated from this solution was measured (Ex. 660 nm, Em. 690 nm).

SCC7 cell line = experiment: Cell viability test after photodynamic therapy (CCK-8); assay type: cell-based; conditions: 5 μM AlPcS4 equivalent, 670 nm, 10 J/cm^2, after 24 hours
Procedure: 9000 cells of a SCC7 cell line per well were seeded in a 96 well plate, and cultured for 24 hours. After the AlPcS4 and the GNR/AlPcS4 complex prepared in Preparation Example 2-4 were diluted with a cell culture medium to have an equivalent concentration of 5 μM AlPcS4, 200 μl of the diluted solution per well was added and then maintained at 37° C. for 4 hours. For a control group, the same volume of cell culture medium was added to the plate. Afterwards, to remove the photosensitizer which was not taken up into the cell, the cells were washed with a cell culture medium twice, and then a fresh cell culture medium was added. The PDT-treated groups were irradiated with light at 670 nm using laser under conditions of a light dose density of 50 mW/cm^2 and light doses of 5 J/cm^2 and 10 J/cm^2. After 24 hours, cell viability was measured using a cell counting kit-8 (CCK-8, Dojindo Laboratories).

[5] = at 630 nm; cited from earlier work

Molecule | duration of side effect of skin photosensitivity (skin photosensitivity) | molar absorption coefficient [1] | course of tumor size after photodynamic therapy (SCC7 xenograft tumor [2]) | size of the tumor relative to control group (SCC7 xenograft tumor [2]; fifth day) | average fluorescence signal in tumor (SCC7 xenograft tumor [3]) | tumor-to-background ratio of the AlPcS4 fluorescence (SCC7 xenograft tumor [3]) | effect of increasing amount of serum (FBS) on uptake into cells [4] | phototoxicity (SCC7 cell line) | molar absorption coefficient [5]
C=Cc1c(C)c2cc3nc(c(CC(=O)N[C@@H](CC(=O)[O-])C(=O)[O-])c4nc(cc5[nH]c(cc1[nH]2)c(C)c5CC)C(C)=C4C(=O)[O-])[C@@H](CCC(=O)[O-])[C@@H]3C.[Na+].[Na+].[Na+].[Na+] [Mono-L-aspartyl chlorine e6, mono-L-aspartyl chlorine e6] | 1 week | – | – | – | – | – | – | – | –
Al(III) phthalocyanine chloride tetrasulfonic acid [AlPcS4] | – | 170000 M⁻¹ cm⁻¹ | temporarily decreased | 67% | 7224 counts | 2.5 | greatly decreased | 64% | –
Photofrin | more than 6 week | – | – | – | – | – | – | – | 1170 M⁻¹ cm⁻¹
